Calls of active or inactive are those of the source. No cut-off for these calls is given here.
Columns and labels:
Pseudomonas aeruginosa = assay: Potentiation of novobiocin-induced antibacterial activity against wild type Pseudomonas aeruginosa PAO1 incubated for 18 hrs by CLSI protocol based assay; format: functional, organism-based
Acinetobacter baumannii [1] = assay: Antibacterial activity against novobiocin-resistant Acinetobacter baumannii ATCC 17978 mutant generated from seven serial passages by checkerboard assay; format: functional
Acinetobacter baumannii [2] = assay: Antibacterial activity against colistin-resistant Acinetobacter baumannii ATCC 17978 mutant generated from seven serial passages by checkerboard assay; format: functional
Acinetobacter baumannii [3] = assay: Antibacterial activity against novobiocin and test compound-resistant Acinetobacter baumannii ATCC 17978 mutant generated from seven serial passages in presence of novobiocin by checkerboard assay; format: functional
Acinetobacter baumannii [4] = assay: Antibacterial activity against wild type Acinetobacter baumannii ATCC 17978 by checkerboard assay; format: functional

SMILES | Activity (Pseudomonas aeruginosa) | MIC (Acinetobacter baumannii [1]) [µg/mL] | MIC (Acinetobacter baumannii [2]) [µg/mL] | MIC (Acinetobacter baumannii [3]) [µg/mL] | MIC (Acinetobacter baumannii [4]) [µg/mL]
CC(C)(C)OC(=O)NC[C@H]1O[C@H](O[C@H]2[C@H](OCCCCc3cn(CCCCO[C@@H]4[C@@H](O[C@H]5O[C@H](CO)[C@@H](O)[C@H](NC(=O)OC(C)(C)C)[C@H]5O)[C@H](NC(=O)OC(C)(C)C)C[C@H](NC(=O)OC(C)(C)C)[C@H]4O[C@H]4O[C@H](CNC(=O)OC(C)(C)C)[C@@H](O)C[C@H]4NC(=O)OC(C)(C)C)nn3)[C@@H](O[C@H]3O[C@H](CO)[C@@H](O)[C@H](NC(=O)OC(C)(C)C)[C@H]3O)[C@H](NC(=O)OC(C)(C)C)C[C@@H]2NC(=O)OC(C)(C)C)[C@H](NC(=O)OC(C)(C)C)C[C@@H]1O | inactive |  |  |  | 
CC(C)(O/N=C(\C(=O)N[C@@H]1C(=O)N2C(C(=O)[O-])=C(C[n+]3ccccc3)CS[C@H]12)c1csc(N)n1)C(=O)O [CEFTAZIDIME] |  | 32 | 1 | 16 | 16
O=C(N[C@H](CO)[C@H](O)c1ccc([N+](=O)[O-])cc1)C(Cl)Cl [CHLORAMPHENICOL] |  | 32 | 8 | 64 | 64
[N-]=[N+]=NCCCCO[C@@H]1[C@@H](O[C@H]2O[C@H](CO)[C@@H](O)[C@H](N)[C@H]2O)[C@H](N)C[C@H](N)[C@H]1O[C@H]1O[C@H](CN)[C@@H](O)C[C@H]1N | inactive |  |  |  | 

From ChEMBL document CHEMBL4376820, “Homodimeric Tobramycin Adjuvant Repurposes Novobiocin as an Effective Antibacterial Agent against Gram-Negative Bacteria” (J Med Chem, 2019)
